According to patent EP4015040A1, “METHOD FOR TREATING BLOOD DISEASES” (Fundación para la Formación e Investigación Sanitarias de …, priority 2020, dated 2022):

Target: T1, telomerase (Danio rerio, UniProt A2THE9)
T1 sequence (A2THE9 1-1098): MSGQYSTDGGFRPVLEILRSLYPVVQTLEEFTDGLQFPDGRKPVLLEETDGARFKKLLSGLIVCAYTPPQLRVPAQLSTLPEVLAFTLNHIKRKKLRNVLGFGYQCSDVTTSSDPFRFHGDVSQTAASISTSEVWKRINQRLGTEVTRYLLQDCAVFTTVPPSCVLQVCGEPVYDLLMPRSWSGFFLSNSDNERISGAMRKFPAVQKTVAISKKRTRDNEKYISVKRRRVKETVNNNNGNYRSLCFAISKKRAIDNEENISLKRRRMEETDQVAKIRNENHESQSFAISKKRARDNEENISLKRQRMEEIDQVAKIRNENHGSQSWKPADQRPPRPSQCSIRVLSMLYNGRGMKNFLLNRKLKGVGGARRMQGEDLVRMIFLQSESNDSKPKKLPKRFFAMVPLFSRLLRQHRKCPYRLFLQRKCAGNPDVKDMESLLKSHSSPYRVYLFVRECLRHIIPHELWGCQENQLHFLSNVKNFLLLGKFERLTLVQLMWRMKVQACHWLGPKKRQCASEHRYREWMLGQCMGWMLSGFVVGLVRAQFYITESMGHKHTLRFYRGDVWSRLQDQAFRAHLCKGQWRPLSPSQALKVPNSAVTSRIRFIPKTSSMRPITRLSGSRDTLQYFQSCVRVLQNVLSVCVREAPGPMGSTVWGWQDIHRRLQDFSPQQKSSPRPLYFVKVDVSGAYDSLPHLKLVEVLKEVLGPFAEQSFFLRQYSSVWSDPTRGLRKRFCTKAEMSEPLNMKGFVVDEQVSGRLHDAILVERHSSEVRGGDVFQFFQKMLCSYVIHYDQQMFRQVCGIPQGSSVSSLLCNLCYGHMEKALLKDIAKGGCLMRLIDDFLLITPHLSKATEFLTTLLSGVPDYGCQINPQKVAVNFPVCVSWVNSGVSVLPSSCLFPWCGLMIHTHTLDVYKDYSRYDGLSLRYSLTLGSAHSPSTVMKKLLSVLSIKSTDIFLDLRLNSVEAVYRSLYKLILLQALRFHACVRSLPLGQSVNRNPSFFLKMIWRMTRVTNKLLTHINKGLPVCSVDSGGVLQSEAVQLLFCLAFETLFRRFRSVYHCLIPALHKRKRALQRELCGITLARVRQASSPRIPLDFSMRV
Assay: Telomerase activity assay (Q-TRAP) in protein extracts of microinjected larvae
Format: in vivo
Settings: zebrafish; 20 µM microinjected, larvae collected at 48 hpf; read-out: reduction of telomerase activity

inhibition at 20 µM: > 50%
SMILES: C/C(=C\C(=O)Nc1ccccc1C(=O)O)c1ccc2ccccc2c1 [BIBR1532]
